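Exposure lasted 48 hours, with cells grown in 96-well plates and compounds tested at five concentrations. GI50 marks 50% less growth. TGI: concentration producing complete growth inhibition.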
How the values were obtained:
Experiment in all cases: NCI anticancer screen, dose series, 48 h
SNB-19 CNS = tested on: SNB-19 CNS
HCT-15 colon = tested on: HCT-15 colon
M14 melanoma = tested on: M14 melanoma
NCI-H522 lung = tested on: NCI-H522 lung
UACC-257 melanoma = tested on: UACC-257 melanoma
SN12C renal = tested on: SN12C renal
SK-OV-3 ovarian = tested on: SK-OV-3 ovarian
K-562 leukemia = tested on: K-562 leukemia
IGROV1 ovarian = tested on: IGROV1 ovarian
SR leukemia = tested on: SR leukemia

| SMILES | GI50 (SNB-19 CNS) | TGI (SNB-19 CNS) | GI50 (HCT-15 colon) | TGI (HCT-15 colon) | GI50 (M14 melanoma) | TGI (M14 melanoma) | GI50 (NCI-H522 lung) | TGI (NCI-H522 lung) | GI50 (UACC-257 melanoma) | TGI (UACC-257 melanoma) | GI50 (SN12C renal) | TGI (SN12C renal) | GI50 (SK-OV-3 ovarian) | TGI (SK-OV-3 ovarian) | GI50 (K-562 leukemia) | TGI (K-562 leukemia) | GI50 (IGROV1 ovarian) | TGI (IGROV1 ovarian) | GI50 (SR leukemia) | TGI (SR leukemia) |
| --- | --- | --- | --- | --- | --- | --- | --- | --- | --- | --- | --- | --- | --- | --- | --- | --- | --- | --- | --- | --- |
| C[C@]12CC[C@H]3[C@@H](CC4SC(N)=NC45C/C(=N/NC(N)=O)CC[C@]35C)[C@@H]1CCC2=O (stereo partly specified) | 1.87 µM | 3.62 µM | 1.46 µM | 2.86 µM | 1.94 µM | 3.77 µM | 1.93 µM | 4.06 µM | 2.4 µM | 5.83 µM | 1.89 µM | 3.45 µM | 6.21 µM | 22.3 µM | 1.81 µM | 5.08 µM | 1.78 µM | 3.43 µM |  |  |
| O=C1C(=O)c2ccccc2C(O)=C1CCCc1ccc(C2CCCCC2)cc1 | 5.66 µM | > 100 µM | 3 µM | 24.6 µM | 5.93 µM | 22.4 µM | 7.69 µM | > 100 µM | 6.5 µM | > 100 µM | 6.35 µM | > 100 µM | 10.9 µM | 59.7 µM | 3.28 µM | > 100 µM |  |  | 2.44 µM | 31 µM |
| COc1ccc2oc(-c3ccc(OC)c(OC)c3OC)cc(=O)c2c1 |  | > 100 µM |  |  |  | > 100 µM |  | 68.3 µM |  | > 100 µM |  | > 100 µM |  | > 100 µM |  | > 100 µM |  | > 100 µM |  |  |
| O=C1C=Cc2c1ccc1ccccc21 | 33 µM | > 100 µM | 24.1 µM | > 100 µM | 18.9 µM | 60.3 µM | 27.6 µM | > 100 µM | 50.2 µM | > 100 µM | 6.55 µM | 35.7 µM | 30.2 µM | > 100 µM | 28.7 µM | > 100 µM | 25.5 µM | > 100 µM |  |  |
| C=C1C(=O)O[C@H]2[C@H]1CC/C(Cn1cc(-c3ccc(F)cc3)nn1)=C\CC[C@@]1(C)O[C@@H]21 | 3.39 µM | 13 µM | 0.282 µM | 1.19 µM | 0.944 µM | 2.44 µM |  |  | 1.47 µM | 3 µM | 1.64 µM | 3.79 µM | 9.78 µM | 21.4 µM | 0.948 µM | 4.84 µM | 1.17 µM | 2.64 µM | 0.251 µM | 1.18 µM |
| CN(C)CCCC1(c2ccc(F)cc2)OCc2cc(-c3cc4ccccc4s3)ccc21 (stereo unspecified) | 1.72 µM | 3.13 µM | 1.69 µM | 3.13 µM | 1.59 µM | 3.13 µM | 1.7 µM | 3.28 µM | 1.8 µM | 3.27 µM | 1.57 µM | 2.94 µM | 1.66 µM | 3.04 µM | 1.68 µM | 3.3 µM | 1.14 µM | 2.46 µM |  |  |
| COc1ccc(/C=C2\SC(=Nc3ccccc3)NC2=O)cc1 | 6.34 µM | 83.7 µM | 2.73 µM | > 100 µM |  |  | 4.54 µM | 24.9 µM | 52.2 µM | > 100 µM | 9.1 µM | > 100 µM | 12.6 µM | 46.8 µM | 2.31 µM | > 100 µM | 13.6 µM | > 100 µM | 2.5 µM | 30.7 µM |

Source: PubChem BioAssay (NCI)
